Measurements as given in patent US12180187B2, “1-phenyl-5-azinylpyrazolyl-3-oxyalkyl acids and their use for controlling unwanted plant growth” (BAYER AKTIENGESELLSCHAFT, priority 2019, dated 2024).

Experiments:
[1] = system: ALOMY; test: Pre-emergence action against ALOMY, 1280 g/ha; assay type: in vivo, Alopecurus myosuroides; settings: visual scoring after about 3 weeks vs untreated controls, 100% = plants have died, 0% = like control plants
How it was run: (§1)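 Greenhouse pre-emergence test on sown seeds in sandy loam; soil-surface spray of formulated compound with 0.5% additive at 600 L/ha water. Scored visually, % vs untreated, after about 3 weeks.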

[2] = system: DIGSA; test: Pre-emergence action against DIGSA, 1280 g/ha; assay type: in vivo, Digitaria sanguinalis; settings: visual scoring after about 3 weeks vs untreated controls, 100% = plants have died, 0% = like control plants
How it was run: as §1

[3] = system: ECHCG; test: Pre-emergence action against ECHCG, 1280 g/ha; assay type: in vivo, Echinochloa crus-galli; settings: visual scoring after about 3 weeks vs untreated controls, 100% = plants have died, 0% = like control plants
How it was run: as §1

[4] = system: LOLRI; test: Pre-emergence action against LOLRI, 1280 g/ha; assay type: in vivo, Lolium rigidum; settings: visual scoring after about 3 weeks vs untreated controls, 100% = plants have died, 0% = like control plants
How it was run: as §1

[5] = system: POAAN; test: Pre-emergence action against POAAN, 1280 g/ha; assay type: in vivo, Poa annua; settings: visual scoring after about 3 weeks vs untreated controls, 100% = plants have died, 0% = like control plants
How it was run: as §1

[6] = system: SETVI; test: Pre-emergence action against SETVI, 1280 g/ha; assay type: in vivo, Setaria viridis; settings: visual scoring after about 3 weeks vs untreated controls, 100% = plants have died, 0% = like control plants
How it was run: as §1

[7] = system: ABUTH; test: Pre-emergence action against ABUTH, 1280 g/ha; assay type: in vivo, Abutilon theophrasti; settings: scored visually after about 3 weeks vs untreated controls (100% = plants have died)
Source text: 1. Pre-Emergence Herbicidal Effect and Crop Plant Compatibility a) Seeds of mono- and dicotyledonous weed plants are placed in plastic pots in sandy loam soil (doubly sown with one species each of mono- or dicotyledonous weed plants per pot) and covered with soil. The compounds of the invention, formulated in the form of wettable powders (WP) or as emulsion concentrates (EC), are then applied onto the surface of the covering soil as aqueous suspension or emulsion with addition of 0.5% additive at a water application rate equivalent to 600 litres per hectare. After the treatment, the pots are placed in a greenhouse and kept under good growth conditions for the trial plants. After about 3 weeks, the effect of the preparations is scored visually in comparison with untreated controls as percentages. For example, 100% activity=the plants have died, 0% activity=like control plants. 1. Pre-Emergence Effectiveness Tables 1 to 12 below show the effects of selected compounds of the general formula (I) according to Tables 1 and 2 on various harmful plants and at an application rate corresponding to 1280 g/ha, which were obtained by the experimental procedure mentioned above.

[8] = system: AMARE; test: Pre-emergence action against AMARE, 1280 g/ha; assay type: in vivo, Amaranthus retroflexus; settings: scored visually after about 3 weeks vs untreated controls (100% = plants have died)
How it was run: as §1

[9] = system: KCHSC; test: Pre-emergence action against KCHSC, 1280 g/ha; assay type: in vivo, Bassia scoparia; settings: scored visually after about 3 weeks vs untreated controls (100% = plants have died)
How it was run: as §1

[10] = system: MATIN; test: Pre-emergence action against MATIN, 1280 g/ha; assay type: in vivo, Tripleurospermum inodorum (Matricaria inodora); settings: scored visually after about 3 weeks vs untreated controls (100% = plants have died)
How it was run: as §1

[11] = system: STEME; test: Pre-emergence action against STEME, 1280 g/ha; assay type: in vivo, Stellaria media; settings: scored visually after about 3 weeks vs untreated controls (100% = plants have died)
How it was run: as §1

[12] = system: VERPE; test: Pre-emergence action against VERPE, 1280 g/ha; assay type: in vivo, Veronica persica; settings: scored visually after about 3 weeks vs untreated controls (100% = plants have died)
How it was run: as §1

[13] = system: ALOMY; test: Post-emergence action against ALOMY, 1.28 kg/ha; assay type: in vivo, Alopecurus myosuroides; settings: dosage 1280 g/ha, visual rating about 3 weeks after treatment vs untreated controls
How it was run: (§2)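 Activity scored visually roughly 3 weeks after treatment against untreated plants (0% = as control, 100% = dead). Plants grown in sandy loam in greenhouse, treated at one-leaf stage, 2–3 weeks post-sowing, with WP/EC spray containing 0.5% additive at 600 l/ha.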

[14] = system: DIGSA; test: Post-emergence action against DIGSA, 1.28 kg/ha; assay type: in vivo, Digitaria sanguinalis; settings: dosage 1280 g/ha, visual rating about 3 weeks after treatment vs untreated controls
How it was run: as §2

[15] = system: ECHCG; test: Post-emergence action against ECHCG, 1.28 kg/ha; assay type: in vivo, Echinochloa crus-galli; settings: dosage 1280 g/ha, visual rating about 3 weeks after treatment vs untreated controls
How it was run: as §2

[16] = system: POAAN; test: Post-emergence action against POAAN, 1.28 kg/ha; assay type: in vivo, Poa annua; settings: dosage 1280 g/ha, visual rating about 3 weeks after treatment vs untreated controls
How it was run: as §2

[17] = system: ABUTH; test: Post-emergence action against ABUTH, 1.28 kg/ha; assay type: in vivo, Abutilon theophrasti; settings: dosage 1280 g/ha, visual rating about 3 weeks after treatment vs untreated controls (100% = plants died)
How it was run: as §2

[18] = system: AMARE; test: Post-emergence action against AMARE, 1.28 kg/ha; assay type: in vivo, Amaranthus retroflexus; settings: dosage 1280 g/ha, visual rating about 3 weeks after treatment vs untreated controls (100% = plants died)
How it was run: as §2

[19] = system: MATIN; test: Post-emergence action against MATIN, 1.28 kg/ha; assay type: in vivo, Tripleurospermum inodorum (Matricaria inodora); settings: dosage 1280 g/ha, visual rating about 3 weeks after treatment vs untreated controls (100% = plants died)
How it was run: as §2

[20] = system: STEME; test: Post-emergence action against STEME, 1.28 kg/ha; assay type: in vivo, Stellaria media; settings: dosage 1280 g/ha, visual rating about 3 weeks after treatment vs untreated controls (100% = plants died)
How it was run: as §2

[21] = system: VERPE; test: Post-emergence action against VERPE, 1.28 kg/ha; assay type: in vivo, Veronica persica; settings: dosage 1280 g/ha, visual rating about 3 weeks after treatment vs untreated controls (100% = plants died)
How it was run: as §2

[22] = system: SETVI; test: Post-emergence action against SETVI, 1.28 kg/ha; assay type: in vivo, Setaria viridis; settings: dosage 1280 g/ha, visual rating about 3 weeks after treatment vs untreated controls
How it was run: as §2

[23] = system: KCHSC; test: Post-emergence action against KCHSC, 1.28 kg/ha; assay type: in vivo, Bassia scoparia; settings: dosage 1280 g/ha, visual rating about 3 weeks after treatment vs untreated controls (100% = plants died)
How it was run: as §2

[24] = system: LOLRI; test: Post-emergence action against LOLRI, 1.28 kg/ha; assay type: in vivo, Lolium rigidum; settings: dosage 1280 g/ha, visual rating about 3 weeks after treatment vs untreated controls
How it was run: as §2

| SMILES | Pre-emergence action against ALOMY [1] [%] | Pre-emergence action against DIGSA [2] [%] | Pre-emergence action against ECHCG [3] [%] | Pre-emergence action against LOLRI [4] [%] | Pre-emergence action against POAAN [5] [%] | Pre-emergence action against SETVI [6] [%] | Pre-emergence action against ABUTH [7] [%] | Pre-emergence action against AMARE [8] [%] | Pre-emergence action against MATIN [10] [%] | Pre-emergence action against STEME [11] [%] | Pre-emergence action against VERPE [12] [%] | Post-emergence action against ALOMY [13] [%] | Post-emergence action against DIGSA [14] [%] | Post-emergence action against ECHCG [15] [%] | Post-emergence action against POAAN [16] [%] | Post-emergence action against ABUTH [17] [%] | Post-emergence action against AMARE [18] [%] | Post-emergence action against MATIN [19] [%] | Post-emergence action against STEME [20] [%] | Post-emergence action against VERPE [21] [%] | also measured |
| --- | --- | --- | --- | --- | --- | --- | --- | --- | --- | --- | --- | --- | --- | --- | --- | --- | --- | --- | --- | --- | --- |
| O=C(COc1nn(-c2ccccc2F)c(-c2ccc(F)nc2)c1Br)NS(=O)(=O)CC(F)(F)F [Example X-003] | 90 | 100 | 100 | 100 | 100 | 100 | 90 | 100 | 100 | 100 | 100 | 100 | 100 | 90 | 100 | 90 | 90 | 100 | 90 | 90 | Pre-emergence action against KCHSC [9]: 90% |
| O=C(O)COc1nn(-c2ccccc2F)c(-c2ccc(F)nc2)c1Br [VI-003] | 90 | 100 | 100 | 90 | 100 | 100 | 90 | 100 | 100 | 90 | 100 |  | 100 | 100 | 100 | 90 | 90 | 100 |  | 90 | Post-emergence action against SETVI [22]: 100%; Post-emergence action against KCHSC [23]: 90% |
| COC(=O)COc1nn(-c2c(F)cccc2F)c(-c2ccc(F)nc2)c1C#N [VII-061] | 100 | 100 | 100 | 100 | 100 | 100 | 90 | 100 | 100 | 100 | 100 | 100 | 100 | 100 | 100 | 90 | 90 | 100 | 100 | 100 | Post-emergence action against LOLRI [24]: 100%; Post-emergence action against SETVI [22]: 90%; Post-emergence action against KCHSC [23]: 90% |
| CC(Oc1nn(-c2ccccc2F)c(-c2ccc(F)nc2)c1C(F)(F)F)C(=O)O (stereo not shown) [VII-106] | 100 | 100 | 100 | 100 | 100 | 100 | 90 | 100 | 90 | 100 | 100 | 100 | 100 | 90 | 100 |  |  | 90 | 100 | 100 | Post-emergence action against SETVI [22]: 90%; Post-emergence action against KCHSC [23]: 100% |
| COC(=O)COc1nn(-c2c(F)cccc2F)c(-c2ccc(F)nc2)c1Br [VII-109] | 100 | 100 | 100 | 100 | 100 | 100 | 90 | 100 | 100 | 100 | 100 | 100 | 100 | 100 | 100 | 100 | 100 | 100 | 100 | 100 | Post-emergence action against LOLRI [24]: 100%; Post-emergence action against SETVI [22]: 100%; Post-emergence action against KCHSC [23]: 90% |
| COC(=O)[C@@H](C)Oc1nn(-c2ccccc2F)c(-c2cnc(F)c(F)c2)c1Br [VII-149] | 100 | 100 |  | 100 | 100 | 90 | 90 | 100 | 90 | 100 | 100 | 100 | 100 |  | 100 |  | 100 | 100 |  | 90 | Post-emergence action against LOLRI [24]: 100% |
